Target: SSTR2 (Homo sapiens, UniProt P30874)
Assay: β-Arrestin mediated receptor internalization (PathHunter), transfected CHO cells
Type: cell-based
Settings: SSTR2 transfected cells
Protocol: The assays were performed utilizing the PathHunter beta-arrestin enzyme fragment complementation (EFC) technology by Eurofins (CA, USA).
Cell Handling: 1. PathHunter cell lines were expanded from freezer stocks according to standard procedures. 2. Cells were seeded in a total volume of 20 μL into white walled, 384-well microplates and incubated at 37° C. for the appropriate time prior to testing. Agonist Format: 1. For agonist determination, cells were incubated with sample to induce response. 2. Intermediate dilution of sample stocks was performed to generate 5× sample in assay buffer. 3. 5 μL of 5× sample was added to cells and incubated at 37° C. or room temperature for 90 or 180 minutes. Final assay vehicle concentration was 1%. […] Microplates were read following signal generation with a PerkinElmer Envision™ instrument for chemiluminescent signal detection. Data Analysi: Compound activity was analyzed using CBIS data analysis suite (ChemInnovation, CA). […] For agonist mode assays, percentage activity was calculated using the following formula: % Activity=100%×(mean RLU of test sample−mean RLU of vehicle control)/(mean MAX control ligand−mean RLU of vehicle control). […] For antagonist mode assays, percentage inhibition was calculated using the following formula: % Inhibition =100%×(1−(mean RLU of test sample−mean RLU of vehicle control)/(mean RLU of EC80 control−mean RLU of vehicle control)). […]

Sequence of SSTR2 (P30874 whole entry): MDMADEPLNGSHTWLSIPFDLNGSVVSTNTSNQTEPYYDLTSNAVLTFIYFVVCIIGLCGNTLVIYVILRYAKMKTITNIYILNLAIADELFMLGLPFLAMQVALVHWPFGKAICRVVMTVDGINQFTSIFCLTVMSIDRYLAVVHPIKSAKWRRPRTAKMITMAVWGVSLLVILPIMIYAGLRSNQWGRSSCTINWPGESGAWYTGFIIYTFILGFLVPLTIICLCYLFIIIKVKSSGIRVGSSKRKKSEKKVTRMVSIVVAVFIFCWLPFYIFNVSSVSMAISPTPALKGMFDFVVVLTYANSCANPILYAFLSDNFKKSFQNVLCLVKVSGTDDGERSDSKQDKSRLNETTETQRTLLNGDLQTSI

Q: What does the source list for SRIF-28?
A: Efficacy - maximal response: 47480 RLU; Note: Agonist

— patent US20240165282A1, “CONFORMATIONAL CONSTRAINED SOMATOSTATIN RECEPTOR 3 PEPTIDE LIGANDS AND THEIR CONJUGATES AND USES THEREOF” (STARGET PHARMA LTD., priority 2021, published 2024)
